Results on 2 compounds are retold here after publication PMC4131461, “Antiviral Action of Synthetic Stigmasterol Derivatives on Herpes Simplex Virus Replication in Nervous Cells In Vitro” (BioMed Research International, 2014).

A short description of series [1]: MTT cytotoxicity assay in PC-12 cells. The conditions noted are these: rat, PC-12 cells (confluent nongrowing monolayers), 24 h incubation at 37°C. It is filed as cell-based. On the procedure: (§1) Cell viability in the presence of different concentration of the compound was determined using the MTT assay. The absorbance of each well was measured on Eurogenetics MPR-A 4i microplate reader using a test wavelength of 570 nm and a reference wavelength of 630 nm. The CC50 was defined as the concentration of the compound that caused a 50% reduction in absorbance.
(§2) Fifty percent cytotoxic concentration (CC50) for PC-12, Neuro-2a, and SH-SY5Y cells was determined. Compounds 1 and 2 were added to confluent nongrowing cells in concentrations ranging from 1 to 144 μM and from 1 to 129 μM, respectively, and, after 24 h incubation at 37°C, a MTT colorimetric assay was performed.
(§3) Figure 2 Cytotoxic effect of compounds 1 and 2 in three nervous cell lines. (a) PC-12, (b) Neuro-2a, and (c) SH-SY5Y cells monolayers were incubated in the presence of different concentrations of compounds 1 and 2. After 24 h of incubation at 37°C cell viability was determined by the MTT assay. The CC50 was defined as the concentration of the compound that caused a 50% reduction in cell viability. Data are mean values from four separate experiments.
For orientation: Formazan colour is commonly taken as a measure of viable cells.

Series [2] concerns glucocorticoid receptors (GR). Also on record: method as in Michelini, personal communication. Conditions: ref Michelini, personal communication; cited from earlier work.
Series [3] concerns glucocorticoid receptors (GR). Also on record: method as in Michelini, personal communication. The conditions noted are these: ref Michelini, personal communication; cited from earlier work. This is another data set of the same source.
The test system of the next series is IOBA-NHC cells. The conditions noted are these: cited from earlier work.
A short description of series [4]: MTT cytotoxicity assay in SH-SY5Y cells. Conditions: human, SH-SY5Y cells (confluent nongrowing monolayers), 24 h incubation at 37°C. In kind it is cell-based. On the procedure:
as §1, §2, §3

Series [5] can be described thus: MTT cytotoxicity assay in Neuro-2a cells. It is filed as cell-based, Murine. The conditions noted are these: mouse, Neuro-2a cells (confluent nongrowing monolayers), 24 h incubation at 37°C. On the procedure:
as §1, §2, §3

Series [6] relates to IL-6. The series is described as follows: IL-6 secretion in HSV-1-infected Neuro-2a cells (ELISA). Conditions: HSV-1 KOS-infected Neuro-2a cells, 10 μM compound 1 / 5 μM compound 2, 24 h; for IL-6 levels, reduction: vs untreated infected cells; for IL-6 levels: infected control 659.6 ± 14.8. In kind it is cell-based, Murine. As for the experimental part: (§4) Neuro-2a cells grown in 24-well plates were infected with HSV-1 at a multiplicity of infection (m.o.i.) of 1. After 24 h of incubation at 37°C cells supernatants were harvested and cytokines were quantified. Murine IL-6 and IFN-gamma were quantified by commercial ELISA sets (BD OptEIATM, Becton Dickinson, USA) according to manufacturer instructions.
(§5) On the other hand, compound 2 increases IL-6 levels in human epithelial cells infected with HSV-1 [12]. […] For that purpose, we used those supernatants in which the antiviral effect of compounds 1 and 2 was found (Figure 3(b)). IL-6 and IFN-γ secretion reached 659.6 ± 14.8 pg/mL and 154.7 ± 7.2 pg/mL in HSV-1 infected control cells, respectively. […] IFN-γ levels dropped to 72.3 ± 4.9 pg/mL (P < 0.006) (53.3%) and to 53 ± 4.2 pg/mL (P < 0.001) (65.7%) with respect to untreated infected cells after treatment with 1 and 2. Thus, compounds 1 and 2 might display an anti-inflammatory activity in HSV-1-infected Neuro-2a cells.
Background: ELISA stands for enzyme-linked immunosorbent assay.

Another series deals with TNF-α. Also on record: method as in earlier work. The conditions noted are these: compound 1: HSV-1-infected epithelial cells; compound 2: IOBA-NHC cells; Michelini, personal communication; cited from earlier work.
The subject of series [7] is HSV-1 Cgal. The series is described as follows: HSV-1 Cgal propagation, in situ beta-gal staining. Conditions: PC-12, Neuro-2a, SH-SY5Y cells, m.o.i. 1, 10 μM of 1 / 5 μM of 2, 24 h. It is filed as cell-based, herpes simplex virus type 1. As for the experimental part: (§6) Cells grown in coverslips inside 24-well plates were infected with HSV-1 Cgal. After adsorption, inocula were eliminated and cells were covered with MEM 1.5%. At 24 h after infection (p.i.), supernatants were harvested and stored at −70°C for titration, and cells were stained in situ for β-gal. Coverslips were mounted, observed with an Olympus BX61 microscope, and photographed.
We have previously reported that compounds 1 and 2 inhibit HSV-1 propagation in IOBA-NHC cells. To investigate the effect of both compounds on viral propagation, PC-12, Neuro-2a, and SH-SY5Y cells grown in coverslips inside 24-well plates were infected with HSV-1 Cgal (m.o.i. = 1) and, then, treated with control media, 10 μM of 1 and 5 μM of 2. After 24 h incubation at 37°C, cells were stained in situ for β-gal. […] Therefore, both compounds would prevent HSV-1 Cgal spreading in all nervous cell lines assayed when added after infection.
Figure 4 Effect of compounds 1 and 2 on HSV-1 propagation. (a) PC-12, (b) Neuro-2a, and (c) SH-SY5Y cells monolayers grown in coverslips inside 24-well plates were infected with HSV-1 Cgal and incubated for 1 h at 37°C. Then, cells were covered with DMEM/F12 2% or media containing 10 μM of compound 1 and 5 μM of compound 2. After incubation for 24 h, cells were stained in situ for β-gal. […]

For series [8], the system named is HSV-1 Cgal. The series is described as follows: HSV-1 Cgal virus yield reduction in nervous cell lines (plaque assay). In kind it is cell-based, herpes simplex virus type 1. Conditions: regardless of the virus strain used (KOS wt or Cgal); PC-12, Neuro-2a, SH-SY5Y cells; 10 μM compound 1 / 5 μM compound 2, 24 h. On the procedure:
(§7) Cells grown in 24-well plates were infected with HSV-1 KOS and, after virus adsorption, treated or not with the compounds. After 24 h of incubation at 37°C, supernatants were collected and titrated in Vero cells. Briefly, Vero cells grown in 24-well plates were infected with serial 10-fold dilutions of viral yields and incubated for 1 h at 37°C. Residual inocula were replaced by maintenance medium with 0.7% of methylcellulose. After 72 h of incubation at 37°C, cells were fixed with formaldehyde 10% and stained with Crystal Violet, and plaque forming units were counted.
as §6
Figure 3 Effect of compounds 1 and 2 on HSV-1 virus yield reduction. (a) PC-12, (b) Neuro-2a, and (c) SH-SY5Y cells were infected with HSV-1 KOS (black bars) and HSV-1 Cgal (grey bars) and incubated for 1 h at 37°C. Then, cells were covered with DMEM/F12 2% or media containing 10 μM of compound 1 and 5 μM of compound 2. After 24 h supernatants were harvested and viral titres were determined by plaque assay. […]

In series [9] the test system is IL-6. Also on record: method as in earlier work. Conditions: HSV-1-infected epithelial cells (IOBA-NHC and HCLE); Michelini, personal communication; cited from earlier work.
A further series concerns IFN-γ. The series is described as follows: IFN-gamma secretion in HSV-1-infected Neuro-2a cells (ELISA). In kind it is cell-based, Murine. Conditions: HSV-1 KOS-infected Neuro-2a cells, 10 μM compound 1 / 5 μM compound 2, 24 h; for IFN-γ levels: infected control 154.7 ± 7.2. On the procedure:
as §4, §5

The subject of the next series is HSV-1 KOS wt strain. The series is described as follows: HSV-1 KOS wt virus yield reduction in nervous cell lines (plaque assay). It is filed as cell-based, herpes simplex virus type 1. Conditions: SH-SY5Y cells, m.o.i. 1, 5 μM compound 2, 24 h. As for the experimental part:
as §7
Neuro-2a, PC-12, and SH-SY5Y cells grown in 24-well plates were infected with HSV-1 KOS wt strain at m.o.i. of 1. After 24 h of incubation at 37°C, supernatants were collected and titrated in Vero cells.
Figure 3 Effect of compounds 1 and 2 on HSV-1 virus yield reduction. (a) PC-12, (b) Neuro-2a, and (c) SH-SY5Y cells were infected with HSV-1 KOS (black bars) and HSV-1 Cgal (grey bars) and incubated for 1 h at 37°C. Then, cells were covered with DMEM/F12 2% or media containing 10 μM of compound 1 and 5 μM of compound 2. After 24 h supernatants were harvested and viral titres were determined by plaque assay. Bars show average of two replicates ± SD. *P < 0.05, with respect to untreated infected cells.

By CC50 is commonly meant the concentration at which the toxic effect on the cells reaches its halfway point. With `CC[C@@H](C(C)C)[C@H](O)[C@@H](O)[C@@H](C)[C@H]1CC[C@H]2[C@@H]3CCC4=CC(=O)CC[C@]4(C)[C@H]3CC[C@]12C` [Compound 1, (22S,23S)-22,23-dihydroxystigmast-4-en-3-one], the CC50 at 24 h is greater than 144 µM in series [1], 77.2 µM in [4] and 80.4 µM in series [5]. Further, the “binding to glucocorticoid receptors (GR)” value in series [2] is reported as “none of them was able to bind”. For the same compound, in [3], the “induction of glucocorticoid activity via GR activation” value is given as “none of them was able to”. The CC50 in the series on IOBA-NHC cells was 71.2 µM. For the same compound, in the series on IL-6 [6], the “IL-6 levels, reduction” value is listed as 46.2%. In the series with IL-6 [6], the IL-6 levels was 355.4 ± 10.9 pg/mL. In the series on TNF-α, the “effect on TNF-α levels” value is “does not reduce”. In the series with HSV-1 Cgal [7], the “HSV-1 Cgal propagation (β-gal stained cells)” value was “only scattered stained cells”. The “reduction in viral yields” value in the series on HSV-1 Cgal [8] was 1-2 log. Moreover, the “effect on IL-6 levels” value in the series with IL-6 [9] was “does not reduce”. Also, the “IFN-γ levels, drop with respect to untreated infected cells” value in the series with IFN-γ is reported as 53.3%. Moreover, the IFN-γ levels in the series on IFN-γ was determined as 72.3 ± 4.9 pg/mL.
In turn, `CC[C@@H](C(C)C)[C@H](O)[C@@H](O)[C@@H](C)[C@H]1CC[C@H]2[C@@H]3CC(=O)[C@@]4(O)C[C@@H](Br)CC[C@]4(C)[C@H]3CC[C@]12C` [Compound 2, (22S,23S)-3β-bromo-5α,22,23-trihydroxystigmastan-6-one] returned a CC50 at 24 h in series [1] greater than 129 µM. Besides, the “binding to glucocorticoid receptors (GR)” value in series [2] is on record as “none of them was able to bind”. Further, the “induction of glucocorticoid activity via GR activation” value in [3] was “none of them was able to”. Further, in the series with IOBA-NHC cells, the CC50 was greater than 277 µM. Moreover, the midpoint of cytotoxicity in series [4], the CC50 at 24 h, lay at 70 µM. In the series with HSV-1 KOS wt strain, the “inhibition of HSV-1 yield” value is recorded as roughly 2 logs. In series [5], this compound came in with a CC50 at 24 h of 65.2 µM. Also, in the series with IL-6 [6], the “IL-6 levels, reduction” value stood at 41.1% and the IL-6 levels is on record as 388.2 ± 11.4 pg/mL. Besides, the “effect on TNF-α levels” value with TNF-α is “inhibits”. Also, the “HSV-1 Cgal propagation (β-gal stained cells)” value in the series on HSV-1 Cgal [7] is “only scattered stained cells”. Also, in the series on HSV-1 Cgal [8], the “reduction in viral yields” value is 1-2 log. Besides, the “effect on IL-6 levels” value in the series with IL-6 [9] is listed as “increases”. In addition, in the series on IFN-γ, the “IFN-γ levels, drop with respect to untreated infected cells” value is recorded as 65.7% and the IFN-γ levels is 53 ± 4.2 pg/mL.
